Experimental data reported in patent publication US6451780B1, “Progesterone antagonists for the production of pharmaceutical agents for the treatment of dysfunctional uterine bleeding” (Schering Aktiengesellschaft, priority 1995, dated 2002).

Columns and labels:
Assay type in all cases: in vivo
[1] = test system: Women with menorrhagias and hypermenorrhea; experiment: Prophylactic treatment of menorrhagias and hypermenorrhea with onapristone; conditions: 3-6 cycles
Experimental: Prophylactic Treatment of Menorrhagias and Hypermenorrhea by One-time Administration of Onapristone Women with menorrhagias and hypermenorrhea are orally treated with 200-400 mg of onapristone every 28 days. […] The treatment is continued for 3-6 cycles. Prophylactic Treatment of Menorrhagias and Hypermenorrhea by Repeated Administration of Onapristone Women with menorrhagias and hypermenorrhea are orally treated every 28 days for a maximum of 10 days with 200-400 mg/day of onapristone. […] The treatment is continued for 3-6 cycles.

[2] = test system: Women with dysfunctional metrorrhagias; experiment: Acute treatment of metrorrhagias with onapristone; conditions: one-time oral 200-400 mg, preferably luteal phase
Experimental: Acute Treatment of Metrorrhagias by One-time Administration of Onapristone Women with dysfunctional metrorrhagias are orally treated on a one-time basis with 200-400 mg of onapristone. Preferred is treatment in the luteal phase of the cycle. The treatment results in a cessation of bleeding within 2-4 days.

[3] = test system: Women with dysfunctional metrorrhagias; experiment: Prophylactic treatment of metrorrhagias with onapristone; conditions: 3-6 cycles
Experimental: Prophylactic Treatment of Metrorrhagias by One-time Administration of Onapristone Women with dysfunctional metrorrhagias are orally treated on a one-time basis with 200-400 mg of onapristone every 28 days. […] The treatment is continued for 3-6 cycles. Prophylactic Treatment of Metrorrhagias by Repeated Administration of Onapristone Women with dysfunctional metrorrhagias are orally treated every 28 days for a maximum of 10 days with 200-400 mg/day of onapristone. […] The treatment is continued over 3-6 cycles.

[4] = test system: Women with menorrhagias and hypermenorrhea; experiment: Acute treatment of menorrhagias and hypermenorrhea with onapristone
Experimental: Acute Treatment of Menorrhagias and Hypermenorrhea by One-time Administration of Onapristone Women with menorrhagias and hypermenorrhea are orally treated on a one-time basis with 200-400 mg of onapristone on the 28th day of the cycle or on the first day of bleeding. The treatment induces menstruation-like bleeding of normal intensity (about 30 ml) and duration (about 5 days). Acute Treatment of Menorrhagias and Hypermenorrhea by Repeated Administration of Onapristone Women with menorrhagias and hypermenorrhea are orally treated until bleeding ceases on the 28th day of the cycle or on the first day of bleeding with 200-400 mg/day of onapristone, at most over 10 days.

[5] = one-time oral 200-400 mg every 28 days
[6] = repeated oral 200-400 mg/day every 28 days for a maximum of 10 days
[7] = one-time oral 200-400 mg on 28th day of cycle or first day of bleeding
[8] = repeated oral 200-400 mg/day until bleeding ceases, at most 10 days, from 28th day of cycle or first day of bleeding

## CN(C)c1ccc([C@H]2C[C@]3(C)[C@@H](CC[C@]3(O)CCCO)[C@@H]3CCC4=CC(=O)CCC4=C32)cc1 [onapristone, 11β-(4-dimethylaminophenyl)-17α-hydroxy-17β-(3-hydroxy-propyl)-13α-methyl-4,9-gonadien-3-one]
[1]; [5]
  duration of induced menstruation-like bleeding: about 5 days
  intensity of induced menstruation-like bleeding: about 30 ml
  occurrence of menorrhagias and hypermenorrhea: prevents the occurrence of menorrhagias and hypermenorrhea
[1]; [6]
  duration of induced menstruation-like bleeding: about 5 days
  intensity of induced menstruation-like bleeding: about 30 ml
  occurrence of menorrhagias and hypermenorrhea: prevents the occurrence of menorrhagias and hypermenorrhea
[2]
  cessation of bleeding within: 2 to 4 days
[3]; [5]
  duration of induced menstruation-like bleeding: about 5 days
  intensity of induced menstruation-like bleeding: about 30 ml
  occurrence of metrorrhagias: prevents the occurrence of metrorrhagias
[3]; [6]
  duration of induced menstruation-like bleeding: about 5 days
  intensity of induced menstruation-like bleeding: about 30 ml
  occurrence of metrorrhagias: prevents the occurrence of metrorrhagias
[4]; [7]
  duration of induced menstruation-like bleeding: about 5 days
  intensity of induced menstruation-like bleeding: about 30 ml
[4]; repeated oral 200-400 mg/day until bleeding ceases, at most 10 days
  increased blood loss: prevents increased blood loss
[4]; [8]
  duration of induced menstruation-like bleeding: about 5 days
  intensity of induced menstruation-like bleeding: about 30 ml
